Laboratory results taken from patent US20120009280A1, “METHOD OF REDUCING THE RATE OF DEGRADATION OF A BIOLOGICAL MATERIAL” (Bio-Energy Ingredients Limited, priority 2009, published 2012).

Assays:
total micro-organism = assay: Total microbial (plate) count of spent brewer's / wet distiller's grains stored at ambient temperature; assay type: cell-based; parameters: total microbial count: unit: cfu/gram; conditions: for Total plate count: dose 15% (w/w)
From the text: Samples of spent brewer's grains were drawn from the discharge line of a brewery in South Africa. The samples, packed in dry ice in a cold box, were transported over a distance of approximately 40 kilometres to a laboratory. At the laboratory, the samples were thoroughly mixed and initially split into a first portion (Portion 1) and a second portion (Portion 2). The second portion was about twice the size of the first. Portion 1 was left untreated. Material produced from Portion 1 and Portion 2 is designated below using the code “AR” (as received).
Portion 2 was placed on a clean, standard, laboratory screen deck with 1.4 mm apertures supported from below. As much water as possible was manually squeezed out with a clean flat plastic disc and the sample was then manually remixed after the squeezing. The squeezed material was then split into a third portion (Portion 3) and a fourth portion (Portion 4) of approximately the same size. Material produced from Portion 3 and Portion 4 is designated below using the code “SO” (squeezed).
Portion 4 was added to a high speed kitchen food-shredder and shredded for about two minutes. The shredded material was then returned to the 1.4 mm aperture screen and squeezed again, as described above, and manually remixed again after the second squeezing to produce a shredded and squeezed portion (Portion 5). Material produced from Portion 5 is designated below using the code “SH” (shredded).
(§1) Samples of Portion 1 (“AR”), Portion 3 (“SO”) and Portion 5 (“SH”) were then delivered to a microbiological testing facility about 15 kilometres from the treatment laboratory. Each was tested for initial total microbial, yeast and mould counts, respectively.
(§2) Separate untreated samples were similarly stored under insect-proof screens at ambient temperature for seven days (as shown in Tables 1 and 2). During the trial period the ambient temperature ranged from 11 to 33 degrees C.
After exposure to the environment for seven days, all of the samples were tested at a South African National Accreditation System (SANAS) approved microbiological testing facility. Each was tested for total micro-organism, yeast and mould counts to determine the affect of the various treatments.
Samples of spent brewer's grains were drawn from the discharge line of a brewery in South Africa.
(§3) At the laboratory, the samples were thoroughly mixed and initially split into a first portion (Portion 1) and a second portion (Portion 2). Portion 1 was left untreated. A sample of Portion 1, was delivered immediately to a microbiological testing facility about 15 kilometres away from the treatment laboratory and was tested for initial total microbial, yeast and mould counts, respectively.
Samples from Portion 2 were subjected to treatment with varying amounts of a powdered, commercially-available calcium oxide containing approximately 94% calcium oxide (CaO) as shown in Table 32. The treatments varied from 2.5 to 10% (w/w) calcium oxide addition. The samples were stored in batches (according to the calcium oxide treatment) under insect-proof screens at ambient temperature for fifty six days. […] During the trial period the ambient temperature ranged from 10 to 30 degrees C. As this period was the southern hemisphere spring/early summer, the humidity as well as ambient temperatures varied widely.
(§4) Samples from each treatment were drawn every seven days. No further calcium oxide treatment or agitation took place after the initial mix. In each case the entire sample was isolated and delivered to the microbiological testing facility.
(§5) In this trial the same source of wet distiller's grains (again with now partial water removal prior to treatment) was treated.
as §5

mould = assay: Mould count of spent brewer's / wet distiller's grains stored at ambient temperature; assay type: cell-based; conditions: dose 15% (w/w)
Protocol: as §1, §2
(§6) The free moisture content on the initial spent brewer's grains was determined to be 78.1% m/m. After exposure to the environment for seven days, all of the samples were tested at a South African National Accreditation System (SANAS) approved microbiological testing facility. Each was tested for total micro-organism, yeast and mould counts to determine the affect of the various treatments. A similar procedure to that described in K. A. Rosentrater et al, Food Bioprocess Technol (2008) was used for the microbiological evaluation.
as §3, with “respectively. No water removal prior to treatment was done in this experiment as was the case in Example 8 wherein a similar wet material was partially dewatered by pressing and the residue treated with 10% (w/w/) calcium oxide.” for “respectively.”
Samples from Portion 2 were subjected to treatment with varying amounts of a powdered, commercially-available calcium oxide containing approximately 94% calcium oxide (CaO) as shown in Table 32. […] The samples were stored in batches (according to the calcium oxide treatment) under insect-proof screens at ambient temperature for fifty six days. Separate untreated samples were similarly stored under insect-proof screens at ambient temperature for a total of 56 days. During the trial period the ambient temperature ranged from 10 to 30 degrees C. As this period was the southern hemisphere spring/early summer, the humidity as well as ambient temperatures varied widely.
as §6, with “79.4%” for “78.1%”
as §4
The calcium oxide treatment trial described in Example 9 wherein wet distiller's grains were treated with 2.5%, 5% and 10.0% calcium oxide, respectively, versus untreated material was repeated using lower doses of calcium oxide. In this trial the same source of wet distiller's grains (again with now partial water removal prior to treatment) was treated. Also, the same protocol as described in Example 9 was applied, but at lower doses of calcium oxide i.e. 0.5%, 1.0%, 1.5%, 2.0% and 2.5%, respectively, versus untreated material.
In this trial the same source of wet distiller's grains (again with now partial water removal prior to treatment) was treated. Also, the same protocol as described in Example 9 was applied.

yeast = assay: Yeast count of spent brewer's / wet distiller's grains stored at ambient temperature; assay type: cell-based; conditions: dose 15% (w/w)
[1] = pH of suspensions of grain samples in distilled water or PBS; conditions: dose 15% (w/w), 1% (w/w) in distilled water
Protocol: The untreated sample (A) was compared visually against the corresponding quicklime-treated sample (B).
On Day 7, 10 g amounts of each sample were suspended in either 90 ml PBS or 90 ml sterile distilled water and shaken for 10 minutes. The pH of each suspension was then measured and compared.
On Day 9, 10 g of each sample was suspended in 90 ml PBS and shaken for 10 minutes. The pH was measured.

SMILES | Total plate count (total micro-organism; week 0) [cfu/gram] | Total plate count (total micro-organism; week 1) [cfu/gram] | Total plate count (total micro-organism; week 3) [cfu/gram] | Total plate count (total micro-organism; week 4) [cfu/gram] | Total plate count (total micro-organism; week 6) [cfu/gram] | Total plate count (total micro-organism; week 7) [cfu/gram] | Total plate count (total micro-organism; week 8) [cfu/gram] | Total plate count (total micro-organism; week 9) [cfu/gram] | Mould Count (mould; week 1) [cfu/gram] | Mould Count (mould; week 2) [cfu/gram] | Mould Count (mould; week 3) [cfu/gram] | Mould Count (mould; week 4) [cfu/gram] | Mould Count (mould; week 5) [cfu/gram] | Mould Count (mould; week 6) [cfu/gram] | Mould Count (mould; week 7) [cfu/gram] | Mould Count (mould; week 8) [cfu/gram] | Mould Count (mould; week 9) [cfu/gram] | Yeast Count (yeast; week 1) [cfu/gram] | Yeast Count (yeast; week 2) [cfu/gram] | Yeast Count (yeast; week 3) [cfu/gram] | further results
[Ca+2].[O-]CC(O)CO.[O-]CC(O)CO [Ca-DGO powder + granules (1:1)] | 540 | 50 | 70 | <10 | 150 | 660 | 4200 | 45000 | <10 | <10 | <10 | <10 | <10 | <10 | <10 | <10 | <10 | <10 | <10 | <10 | Total plate count (total micro-organism; week 2): 710 cfu/gram; Yeast Count (yeast; week 4): <10 cfu/gram; Yeast Count (yeast; week 5): 20 cfu/gram; Yeast Count (yeast; week 6): <10 cfu/gram; Yeast Count (yeast; week 7): <10 cfu/gram; Yeast Count (yeast; week 8): <10 cfu/gram; Yeast Count (yeast; week 9): <10 cfu/gram; pH ([1]; week 1): 11.47; pH ([1]; week 2): 7.57; pH ([1]; week 3): 7.88; pH ([1]; week 4): 9.29; pH ([1]; week 5): 6.78; pH ([1]; week 6): 9.27; pH ([1]; week 7): 7.23; pH ([1]; week 8): 9.18; pH ([1]; week 9): 8.93
[Ca+2].[O-]CC(O)CO.[O-]CC(O)CO [Ca-DGO powder] | 40 | 80 | 100 | 10 | 50 | 40 | 70 | 10 | <10 | <10 | <10 | <10 | <10 | <10 | <10 | <10 | 350 | <10 | <10 | <10 | Mould Count (mould; week 0): <10 cfu/gram; Yeast Count (yeast; week 0): <10 cfu/gram; Yeast Count (yeast; week 4): <10 cfu/gram; Yeast Count (yeast; week 5): <10 cfu/gram; Yeast Count (yeast; week 6): <10 cfu/gram; Yeast Count (yeast; week 7): <10 cfu/gram; Yeast Count (yeast; week 8): <10 cfu/gram; Yeast Count (yeast; week 9): <10 cfu/gram; pH ([1]; week 0): 11.50; pH ([1]; week 1): 11.73; pH ([1]; week 2): 7.33; pH ([1]; week 3): 7.38; pH ([1]; week 4): 8.83; pH ([1]; week 6): 9.18; pH ([1]; week 8): 9.14; pH ([1]; week 9): 9.07
[Ca+2].[O-]CC(O)CO.[O-]CC(O)CO [calcium diglyceroxide granules, calcium diglyceroxide] | – | – | – | – | – | – | – | – | – | – | – | – | – | – | – | – | – | – | – | – | total microbial count (total micro-organism; granules 10% (w/w), 2 week time point): below 10; total microbial count (total micro-organism; granules 10% (w/w), 3 week time point): 540; total microbial count (total micro-organism; granules 10% (w/w), 4 week time point): 60; total microbial count (total micro-organism; granules 10% (w/w), 5 week time point): 650; effective period (total micro-organism; granules 10% (w/w), Example 18): ~7 weeks
